Here are results for 11 molecules from ChEMBL document CHEMBL1201862, “PubChem BioAssay data set” (2004).

Among the test systems are SK-MEL-2; SF-295; LOX IMVI; SK-MEL-5; COLO 205; A498; SK-MEL-28; NCI-H23; SW-620; ACHN; IGROV-1; SF-268; KM-20L2; UACC-257; HT-29; SK-OV-3; KM12.
Assay in all cases: growth of human tumour cells (NCI), 48 h

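Grown in 96-well plates, cells were treated for 48 hours with each compound at five concentrations. Insufficient inhibition: endpoint recorded as highest concentration tested. GI50 = concentration required for 50% inhibition of growth.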 Active and inactive are the calls of the source. No stated cut-off is given here; in the data, active = GI50 up to about 1.1 µM and inactive = higher.

For `CCOC(=O)/C=C(/CN1C(=O)c2ccccc2C1=O)c1ccccc1`, the GI50 with SK-MEL-2, in the assay on SF-295, with LOX IMVI, with SK-MEL-5, in the assay on COLO 205 and with A498 was > 100 µM (inactive) each time. The GI50 in the assay with SK-MEL-28, in the assay on NCI-H23, in the assay with SW-620, with ACHN, with IGROV-1 and with SF-268 was > 100 µM (inactive) each time. Further, the GI50 in the assay on KM-20L2, in the assay on UACC-257, with HT-29, in the assay on SK-OV-3 and with KM12 was > 100 µM (inactive) each time.

Take `CC(C)N(C(=O)C12C3C4C1(I)C1C2C3(I)C41C(=O)N(C(C)C)C(C)C)C(C)C` (configuration not stated): the GI50 is > 100 µM (inactive) in the assay with SK-MEL-2; > 100 µM (inactive) in the assay with SF-295; > 43.5 µM (inactive) in the assay with LOX IMVI; > 100 µM (inactive) in the assay with SK-MEL-5; > 57.3 µM (inactive) in the assay with COLO 205; > 100 µM (inactive) in the assay on A498. Moreover, the GI50 in the assay with SK-MEL-28 is > 100 µM (inactive); in the assay with NCI-H23, > 100 µM (inactive); with SW-620, > 39.2 µM (inactive); in the assay with ACHN, > 100 µM (inactive); in the assay on IGROV-1, > 100 µM (inactive); in the assay on SF-268 it was > 100 µM (inactive). Moreover, the GI50 was > 100 µM (inactive) with KM-20L2; > 100 µM (inactive) in the assay on UACC-257; > 100 µM (inactive) in the assay with HT-29; > 100 µM (inactive) in the assay with SK-OV-3; > 43.2 µM (inactive) in the assay with KM12.

Regarding `O=c1[nH]cc(COCC(O)CO)c(=O)[nH]1` (configuration not stated), the GI50 with SK-MEL-2, with SF-295, with LOX IMVI, in the assay on SK-MEL-5, with COLO 205 and in the assay on A498 was > 100 µM (inactive) each time. In addition, the GI50 in the assay on SK-MEL-28, in the assay with NCI-H23, with SW-620, in the assay on ACHN, in the assay with IGROV-1 and in the assay on SF-268 was > 100 µM (inactive) each time. Moreover, the GI50 with KM-20L2, in the assay on UACC-257, in the assay on HT-29, in the assay on SK-OV-3 and with KM12 was > 100 µM (inactive) in each case.

For the molecule `C=CCc1cc(OC)c(O)c(C(=O)/C=C/c2ccc(OC)c(OC)c2)c1`, the GI50 in the assay with SK-MEL-2 is 13.3 µM (inactive); with SF-295 it was 16.1 µM (inactive); in the assay on LOX IMVI, 16.3 µM (inactive); in the assay on SK-MEL-5, 15.3 µM (inactive); in the assay with COLO 205, 15.3 µM (inactive); in the assay on A498 it was 17.9 µM (inactive). Also, the GI50 with SK-MEL-28 was 16.9 µM (inactive); in the assay on NCI-H23 it was 15 µM (inactive); in the assay on SW-620, 24.4 µM (inactive); in the assay on ACHN, 19.9 µM (inactive); with IGROV-1, 44.6 µM (inactive); with SF-268, 24.4 µM (inactive). In addition, the GI50 in the assay with KM-20L2 was > 10 µM (inactive); in the assay with UACC-257, 19.3 µM (inactive); in the assay on HT-29 it was 16.4 µM (inactive); in the assay with SK-OV-3, 28.5 µM (inactive); in the assay on KM12, 19.5 µM (inactive).

Turning to `Cc1c2ccnc(C(N)=O)c2c(C)c2c1[nH]c1ccccc12`, the GI50 with SK-MEL-2 is 13.1 µM (inactive); in the assay on SF-295, 1.53 µM (inactive); with LOX IMVI, 4.65 µM (inactive); in the assay with SK-MEL-5 it was 6.18 µM (inactive); in the assay on COLO 205 it was 5.07 µM (inactive); in the assay on A498, 8.18 µM (inactive). For the same molecule, the GI50 was 7.78 µM (inactive) with SK-MEL-28; 4.84 µM (inactive) in the assay with NCI-H23; 3.19 µM (inactive) in the assay on SW-620; 2.51 µM (inactive) in the assay on ACHN; 9.2 µM (inactive) in the assay on IGROV-1; 5.46 µM (inactive) with SF-268. Moreover, the GI50 with KM-20L2 was 6.62 µM (inactive); in the assay on UACC-257, 10.5 µM (inactive); with HT-29, 6.35 µM (inactive); in the assay with SK-OV-3, 7.66 µM (inactive); in the assay on KM12 it was 6.07 µM (inactive).

Turning to `CC1COS(=O)N1c1ccccc1` (configuration not stated), the GI50 with SK-MEL-2, in the assay with SF-295, with LOX IMVI, in the assay with SK-MEL-5, in the assay with COLO 205 and in the assay on A498 was > 100 µM (inactive) in each case. Further, the GI50 with SK-MEL-28, with NCI-H23, in the assay with SW-620, with ACHN, in the assay with IGROV-1 and in the assay with SF-268 was > 100 µM (inactive) each time. Besides, the GI50 with KM-20L2, with UACC-257, in the assay on HT-29, in the assay with SK-OV-3 and with KM12 was > 100 µM (inactive) throughout.

For `N#Cc1nc(Nc2ccc(Cl)cc2)sc1N`, the GI50 with SK-MEL-2 was 15.1 µM (inactive); in the assay on SF-295 it was 16.9 µM (inactive); in the assay with LOX IMVI it was 3.47 µM (inactive); in the assay on SK-MEL-5, 2.61 µM (inactive); with COLO 205, 6.68 µM (inactive); in the assay on A498 it was 10.9 µM (inactive). Also, the GI50 in the assay with SK-MEL-28 is 20.5 µM (inactive); in the assay on NCI-H23 it was 3.19 µM (inactive); in the assay on SW-620, 6.1 µM (inactive); in the assay with ACHN, 3.86 µM (inactive); with IGROV-1, 19.5 µM (inactive); in the assay with SF-268, 5.47 µM (inactive). The GI50 in the assay on KM-20L2 is 17.1 µM (inactive); in the assay on UACC-257, 10.2 µM (inactive); in the assay on HT-29, 19.7 µM (inactive); with SK-OV-3, 21.5 µM (inactive); with KM12, 13.8 µM (inactive).

Take `Nc1nc(=O)c(/N=N/c2ccccc2)c(N)[nH]1`: the GI50 with SK-MEL-2 was 39.2 µM (inactive); with SF-295, 32.7 µM (inactive); in the assay with LOX IMVI it was 47.5 µM (inactive); with SK-MEL-5, 51.8 µM (inactive); with COLO 205 it was 65 µM (inactive); in the assay with A498, 45.2 µM (inactive). The GI50 is 24.8 µM (inactive) in the assay on SK-MEL-28; 22.8 µM (inactive) in the assay on NCI-H23; 78.2 µM (inactive) in the assay on SW-620; 27.4 µM (inactive) with ACHN; 29.6 µM (inactive) in the assay with IGROV-1; 28.1 µM (inactive) in the assay with SF-268. For the same molecule, the GI50 with KM-20L2 is 59.2 µM (inactive); in the assay with UACC-257, 56.9 µM (inactive); with HT-29, 28.4 µM (inactive); in the assay on SK-OV-3, 60.3 µM (inactive); in the assay with KM12 it was 56.2 µM (inactive).

On to `COc1ccccc1NC(=O)C1=C(C)NC(C)=C(C(=O)Nc2ccccc2OC)C1c1ccc([N+](=O)[O-])cc1`, for which the GI50 with SK-MEL-2 is 74.5 µM (inactive); in the assay on SF-295 it was 13.4 µM (inactive); in the assay with LOX IMVI, 48.9 µM (inactive); in the assay on SK-MEL-5 it was 30.7 µM (inactive); with COLO 205, 56.2 µM (inactive); with A498, > 100 µM (inactive). Besides, the GI50 was 27 µM (inactive) with SK-MEL-28; 58.6 µM (inactive) in the assay on NCI-H23; 93.1 µM (inactive) with SW-620; 52.8 µM (inactive) with ACHN; > 100 µM (inactive) with IGROV-1; > 100 µM (inactive) with SF-268. Moreover, the GI50 in the assay on KM-20L2 is > 100 µM (inactive); in the assay on UACC-257, > 100 µM (inactive); in the assay on HT-29 it was 80.5 µM (inactive); with SK-OV-3, > 100 µM (inactive); in the assay on KM12, 51.6 µM (inactive).

Consider `O=C(O/N=C1/CCCC/C1=C\c1ccccc1)c1ccccc1`, for which the GI50 in the assay on SK-MEL-2 was > 100 µM (inactive); in the assay on SF-295, 70.3 µM (inactive); in the assay on LOX IMVI, 33 µM (inactive); in the assay on SK-MEL-5 it was 0.146 µM (active); in the assay with COLO 205 it was > 100 µM (inactive); in the assay on A498, 0.178 µM (active). Moreover, the GI50 was > 100 µM (inactive) in the assay with SK-MEL-28; > 100 µM (inactive) with NCI-H23; > 100 µM (inactive) with SW-620; > 100 µM (inactive) in the assay on ACHN; 0.108 µM (active) in the assay on IGROV-1; 33.3 µM (inactive) with SF-268. Also, the GI50 in the assay on KM-20L2 was > 100 µM (inactive); in the assay with UACC-257, > 100 µM (inactive); in the assay with HT-29 it was 40 µM (inactive); with SK-OV-3, > 100 µM (inactive); in the assay with KM12, 45.3 µM (inactive).

For the molecule `Clc1c(Cl)c2c(Cl)c(Cl)c1C[PH](c1ccccc1)(c1ccccc1)CC[PH](c1ccccc1)(c1ccccc1)Cc1c(Cl)c(Cl)c(c(Cl)c1Cl)C[PH](c1ccccc1)(c1ccccc1)CC[PH](c1ccccc1)(c1ccccc1)C2`, the GI50 with SK-MEL-2 was 2.16 µM (inactive); in the assay with SF-295, 3.35 µM (inactive); in the assay on LOX IMVI, 2.52 µM (inactive); in the assay on SK-MEL-5, 1.67 µM (inactive); with COLO 205, 1.53 µM (inactive); in the assay with A498 it was 11.4 µM (inactive). The GI50 was 2.02 µM (inactive) with SK-MEL-28; 2.01 µM (inactive) with NCI-H23; 3.31 µM (inactive) in the assay on SW-620; 4.69 µM (inactive) in the assay with ACHN; 2.86 µM (inactive) in the assay with IGROV-1; 3.39 µM (inactive) in the assay with SF-268. For the same molecule, the GI50 in the assay with KM-20L2 was 2.65 µM (inactive); with UACC-257 it was 2.38 µM (inactive); in the assay with HT-29, 2.21 µM (inactive); with SK-OV-3, 6.84 µM (inactive); in the assay on KM12, 2.34 µM (inactive).
